{
  "source": "patent US20210023223A1",
  "about": "“HYDROCARBON / LIPID - CAROTENOID COMPLEXES” (IP SCIENCE LIMITED, priority 2018, published 2021)",
  "key": {"[1]": {"assay": "Spreadability of oil drops on the surface of water", "type": "physicochemical", "method": "(§1) 1. A petri dish of 13.5 cm diameter was filled to the brim with unheated water.\n(§2) 2. 0.3 ml of Olive or Sunflower oil was dropped onto the surface from a standardised height (30 cm) using a 1 ml pipette.\n(§3) 3. The resultant droplets were photographed and measured 30 sec after impact.\n(§4) 4. For increased reliability, the procedure was repeated 5 times.\n(§5) 5. Steps 1-4 were then repeated for Olive and Sunflower oils with or without carotenoids in different concentrations."}, "[2]": {"system": "moderately obese volunteers", "assay": "Tissue oxygenation StO2 by NIRS, 20 mg lycopene study", "type": "in vivo, human", "method": "Study Design. The total number of volunteers recruited to take part in the study was 18 (9 male and 9 female subjects) Caucasians 40-67 years old.\nProducts Formulated with Lycopene was developed and made by Lycotec Ltd. (Cambridge, United Kingdom). The daily dose was 1 capsule of 20 mg of lycopene, and it was taken with the main meal of the day. The period of administration was 1 month.\nThenar eminence and forearm muscles of the patients were used as a tissue target for the assessment of oxygen saturation, StO2, or combined level of oxygenated haemoglobin and myoglobin. StO2 was assessed by continuous wavelength near-infrared spectroscopy, NIRS, with wide-gap second-derivative (In Spectra, Hutchinson Technology, MN, USA). The measurements were taken at different time points.\nThe recording was initiated after 15 min of rest in a supine position before occlusion of the brachial artery. It was then continued during stagnant ischemia induced by rapidly inflating the cuff to 50 mm Hg above systolic BP. The ischemia lasted for 3 min, and the recording period lasted for another 5 min after that until StO2 was stabilized. The area under the hyperaemic curve, AUC, of the recorded signal for the settling time in the post-occlusion period was then calculated as described earlier in % O2/minute."}, "[3]": {"system": "middle-aged volunteers, facial skin", "assay": "Lycopene trial, facial skin surface material", "type": "in vivo, human", "settings": "7 mg formulated lycopene daily, 4 weeks", "method": "Group II—15 middle-aged (7 males and 8 females, 48-65 years old) for lycopene intervention and\nGroup II—participants received 7 mg formulated lycopene,\nDaily dose of each carotenoid product was taken in one capsule with the main evening meal for 4 weeks (from day 1 to day 28 of the study).\nFor RSSC sample collection all participants of the study were requested to avoid facial hygienic manipulations for 24 hours before material collection, which was carried out in the morning. These samples were collected only before initiation of astaxanthin supplementation (day 0) and at the end of the study (day 29). RSSC sample collection and preparation was performed according to previously described procedures. Briefly, RSSC samples were collected using polyester swabs from the surface of the facial skin (the sides of the nose). During the procedure two samples were taken (one swab per side). Each collected sample was placed on the surface of a microscope slide. A second microscope slide was pressed against the surface of the first one. […] All slides with collected samples (i.e. four slides per study participant per time point) were coded to provide sample anonymity for blinded analysis. All collected samples were sent to the laboratory of Lycotec Ltd for further processing and eventual microscopic examination.\nFor morphological analysis of RSSC samples one slide of the first pair was stained with hematoxylin and eosin in order to identify any cells or cell remnants. The second slide was stained using Oil Red O (Lipid Stain, ab150678, Abcam, Cambridge, UK) for lipid visualization and lipid droplet size evaluation. One slide from the other pair was stained with crystal violet solution (Gram staining) to assess the level of microorganism presence. The remaining slides were kept unstained for possible future use.\nThe analysis of typical structural elements of the RSSC comprised lipid droplet measurements, counting characteristic lipid crystals and desquamated corneocytes, and evaluation of bacterial presence as previously described. The indicated micro objects/structures were quantified using Cell^B imaging software (Digital Imaging Solutions, Olympus, Japan). All microscopic samples were blinded before their examinations.\nSmears collected from the surface of the facial skin were fixed with methanol. Permeabilised corneocytes and sebum present in the material were stained for direct immunofluorescence using fluorescein isothiocyanate-conjugated monoclonal antibody against lycopene recently generated by our group. Fluorescent staining was visualised using Nikon Eclipse 50i microscope with fluorescence attachment. The semi-quantitative analysis was based on visually assessing fluorescence levels in corneocytes and surrounding sebum in 20 random fields of view at ×200 magnification. Fluorescence intensity in the samples was classified using the following scoring system: 0—no fluorescence; 0.5—traces of fluorescence; 1—weak fluorescence; 2—moderate fluorescence; 3—strong fluorescence of some cells or areas of sebum background; 4—extremely strong fluorescence (confluent fluorescent elements within corneocytes). Fluorescence assessment in each sample was repeated blindly three times."}, "[4]": {"assay": "Size of beef fat globules, microscopy", "type": "physicochemical", "excerpt": "For measurement of lipid droplets and fat globules and quantification of their size binocular microscope Olympus BX41 was used with Cell^B software for morphometric analysis. All parameters were collected from 10 randomly selected microscopic fields at ×1000). In case of beef fat, lycopene incorporation led to a smaller increase of its fat globules, only by 30%, FIG. 3."}, "[5]": {"assay": "Acid induced degradation at pH 2.5, gas chromatography", "type": "physicochemical", "settings": "lycopene 1 mg or 3 mg per 1 gram of DHA; 37° C."}, "[6]": {"assay": "Size of lipid droplets of dairy butter, microscopy", "type": "physicochemical", "excerpt": "(§6) For measurement of lipid droplets and fat globules and quantification of their size binocular microscope Olympus BX41 was used with Cell^B software for morphometric analysis. All parameters were collected from 10 randomly selected microscopic fields at ×1000).\nIncorporation of lycopene into the butter led to a significant increase in the size of its lipid droplets and many reached more than 100 or even 300 fold of their diameter. This effect was dose-dependent, and can already be observed for less than 1 molecule of lycopene to 224,000 molecules of butter triglycerides."}, "[7]": {"assay": "Size of Sunflower Oil lipid droplets, microscopy", "type": "physicochemical", "parameters": "Size of Sunflower Oil lipid droplets, Mean / Sunflower Oil lipid droplets, Droplet square: unit not given here", "excerpt": "as §6"}, "[8]": {"assay": "Spreadability of oil drops on the surface of water", "type": "physicochemical", "method": "as §1, §2, §3, §4, §5", "remark": "listed apart in the source"}, "[9]": {"settings": "1 molecule of lycopene within about 120,000 molecules of oil lipids"}, "[10]": {"settings": "lycopene dose 0.1 per 30 g of the oil"}, "[11]": {"settings": "lycopene dose 0.5 per 30 g of the oil"}, "[12]": {"settings": "lycopene dose 1.0 per 30 g of the oil"}, "[13]": {"settings": "lycopene dose 2.0 per 30 g of the oil"}, "[14]": {"settings": "lycopene dose 3.5 per 30 g of the oil"}, "[15]": {"settings": "lycopene dose 7.0 per 30 g of the oil"}, "[16]": {"settings": "lycopene dose 10.0 per 30 g of the oil"}},
  "data": [
    {"smiles": "CC(C)=CCC/C(C)=C/C=C/C(C)=C/C=C/C(C)=C/C=C/C=C(C)/C=C/C=C(C)/C=C/C=C(\\C)CCC=C(C)C", "note": "[Lycopene]", "values": [
      {"measurement": "Diameter of spread lipid drops relative to intact oil", "setting": "[1]; [9]", "value": "6-8 fold"},
      {"measurement": "Increase of spreadability on the surface of the water", "setting": "[1]; sunflower oil", "value": 23, "unit": "fold"},
      {"measurement": "StO2", "setting": "[2]; after 20 mg lycopene daily for one month", "value": "80.4 ± 5.3^ AUC mm"},
      {"measurement": "StO2", "setting": "[2]; before, n = 18", "value": "64.1 ± 4.9^ AUC mm"},
      {"measurement": "Bacterial load on the surface of the skin", "setting": "[3]", "value": "significant reduction of the bacterial load"},
      {"measurement": "Lycopene presence in desquamated corneocytes", "setting": "[3]", "value": "significantly increased for the whole period of supplementation"},
      {"measurement": "Lycopene presence in sebum", "setting": "[3]", "value": "lycopene amount growth only during the first two weeks of supplementation"},
      {"measurement": "Rate of desquamation of corneocytes", "setting": "[3]", "value": "noticeably lower"},
      {"measurement": "Sebum production", "setting": "[3]", "value": "significant increase of the sebum production"},
      {"measurement": "Increase of beef fat globules", "setting": "[4]", "value": 30, "unit": "%"},
      {"measurement": "Degradation of DHA at pH2.5", "setting": "[5]", "value": "completely prevented"},
      {"measurement": "Size of butter lipid droplets, Mean", "setting": "[6]; lycopene dose 0.1 per 30 g of butter", "value": 34.32, "unit": "μm"},
      {"measurement": "Size of butter lipid droplets, Mean", "setting": "[6]; lycopene dose 0.5 per 30 g of butter", "value": 60.39, "unit": "μm"},
      {"measurement": "Size of butter lipid droplets, Mean", "setting": "[6]; lycopene dose 1.0 per 30 g of butter", "value": 92.35, "unit": "μm"},
      {"measurement": "Size of butter lipid droplets, Mean", "setting": "[6]; lycopene dose 3.5 per 30 g of butter", "value": 90.18, "unit": "μm"},
      {"measurement": "Size of butter lipid droplets, Mean", "setting": "[6]; lycopene dose 7.0 per 30 g of butter", "value": 178.95, "unit": "μm"},
      {"measurement": "Size of butter lipid droplets, Mean", "setting": "[6]; lycopene dose 10.0 per 30 g of butter", "value": 141.17, "unit": "μm"},
      {"measurement": "Increase in the size of butter lipid droplets (diameter)", "setting": "[6]; many droplets, 'more than 100 or even 300 fold'", "value": "more than 100 fold"},
      {"measurement": "Size of Sunflower Oil lipid droplets, Mean", "setting": "[7]; [10]", "value": 65.16},
      {"measurement": "Sunflower Oil lipid droplets, Droplet square", "setting": "[7]; [10]", "value": 0.36},
      {"measurement": "Size of Sunflower Oil lipid droplets, Mean", "setting": "[7]; [11]", "value": 144.82},
      {"measurement": "Sunflower Oil lipid droplets, Droplet square", "setting": "[7]; [11]", "value": 1.20},
      {"measurement": "Size of Sunflower Oil lipid droplets, Mean", "setting": "[7]; [12]", "value": 79.73},
      {"measurement": "Sunflower Oil lipid droplets, Droplet square", "setting": "[7]; [12]", "value": 0.72},
      {"measurement": "Size of Sunflower Oil lipid droplets, Mean", "setting": "[7]; [13]", "value": 149.25},
      {"measurement": "Sunflower Oil lipid droplets, Droplet square", "setting": "[7]; [13]", "value": 1.32},
      {"measurement": "Size of Sunflower Oil lipid droplets, Mean", "setting": "[7]; [14]", "value": 286.00},
      {"measurement": "Sunflower Oil lipid droplets, Droplet square", "setting": "[7]; [14]", "value": 4.03},
      {"measurement": "Size of Sunflower Oil lipid droplets, Mean", "setting": "[7]; [15]", "value": 202.78},
      {"measurement": "Sunflower Oil lipid droplets, Droplet square", "setting": "[7]; [15]", "value": 3.44},
      {"measurement": "Size of Sunflower Oil lipid droplets, Mean", "setting": "[7]; [16]", "value": 434.81},
      {"measurement": "Sunflower Oil lipid droplets, Droplet square", "setting": "[7]; [16]", "value": 20.71},
      {"measurement": "Increase in lipid droplet diameter, could reach", "setting": "[7]; sunflower oil", "value": 20, "unit": "fold"},
      {"measurement": "Diameter of spread lipid drops relative to intact oil", "setting": "[8]; [9]", "value": "6-8 fold"},
      {"measurement": "Increase of spreadability on the surface of the water", "setting": "[8]; olive oil", "value": 11, "unit": "fold"}
    ]}
  ]
}
